Source: patent US12616704B2, “Cannabichromene formulation for pain management” (Zyus Life Sciences Inc., priority 2020, dated 2026)

What was measured:
Format in all cases: in vivo, C57BL/6J mice
[1] = test system: Oxaliplatin-induced cool allodynia; assay: Acetone Cooling Test (ACT) in oxaliplatin-induced polyneuropathy (OIPN) model; details: CBC 20 mg/kg p.o., Duloxetine 25 mg/kg i.p.
Method: Model Induction—Mouse Oxaliplatin-induced polyneuropathy (OIPN) model was induced over a three-week period. The day of first Oxaliplatin (OXP) injection is referred to as day 0 (DO). OXP was administered as six separate intraperitoneal injections at 4.5-mg/kg (10 ml/kg, i.p.) to Groups 2, 3, and 4 on DO, D4, D8, D12, D16, and D20. The cumulative OXP dose was thus 27 mg/kg. The in-life procedures, such as observations, tests, and/or measurements were performed by Charles River Discovery Services with blinded methods. The mice were distributed into 4 groups (n=8 for Vehicle Control; n=10 OXP Control; n=20 CBC; n=15 Duloxetine).
Treatments—Following exposure to OXP for 20 days, Groups 3 and 4 were treated with CBC (20 mg/kg, p.o.) and Duloxetine (25 mg/kg, i.p.), respectively, for 10 consecutive days. In a similar regimen Groups 1 and 2 (Vehicle Control and OXP-Vehicle Control, respectively) received a corresponding volume of 5% glucose solution at an administration volume of 10 mL/kg.
Acetone Cooling Test (ACT) —To produce a measurable cooling sensation, 10-15 μL of acetone was applied onto the medial area of the plantar hind paw with a 0.5 ml insulin syringe. Responses of a mouse to acetone were monitored for 20 s, and a score given based on a four-point scale (0-3 points), according to the response intensity, continuation, and briskness. The higher the score, the greater the cool allodynia sensed by the mouse.
Within one test timepoint, a total of 3 trials were performed per paw with a minimum gap of 5 min between testing. The three individual scores were added up to obtain a single score over a cumulative period of 60 s. Thus, for one test, the minimum score of one paw is 0 (no cool allodynia), while the maximum possible score is 9 (intensive cool allodynia). The total scores for the left and right paws were averaged to accomplish a single result value per mouse at each timepoint.
The Acetone Cooling Test was performed prior to OXP administration (Baseline), following the last OXP injection (D21), one day after the first CBC, Duloxetine, or Vehicle treatment (D22), and after a 10-day daily dosing of CBC, Duloxetine, or Vehicle treatment (D31). Taken together, the ACT was used to assess chemotherapy-induce cool allodynia as stated in the schedule:
On D22: At 60 min after the first Vehicle/CBC dose and 120 min after Dulx dose.
On D31: At 60 min after the last Vehicle/CBC and 120 min after Dulx dose.

[2] = Body weight in OIPN study; details: OIPN mice; CBC 20 mg/kg p.o., Duloxetine 25 mg/kg i.p.
Method: Body Weight—Animal body weights were measured before assigning the treatment groups and then on each day of the study. The last body weight measurement was performed upon endpoint sampling. Terminal body weights were not collected from animals found dead or euthanized moribund.

[3] = Welfare observations in OIPN study; details: Duloxetine 25 mg/kg i.p., OIPN mice
Source text: Seven mice were disqualified from further study due to showing too mild cool allodynia.

CNCC[C@H](Oc1cccc2ccccc12)c1cccs1 [Duloxetine, reference compound]
ACT score compared with OXP-Vehicle control ([1]; D22, acute single dose): statistically significant and comparable reduction in cool allodynia | ACT score compared with OXP-Vehicle control ([1]; D31, chronic repeated dosing): maintained a significant reduction in cool allodynia | ACT score, D31 vs. D21 ([1]; within group, 10-day repeated dosing): significant reduction of cool allodynia | ACT score, reversion of cool allodynia D22 vs. D21 pre-treatment: p ([1]; within group, single dose): < 0.01 | body weight development from D22 onwards [2]: slower increase in body weight | share of the group with adverse effects (enlarged staring eyes and clearly decreased activity) [3]: 30%
